# Measurements taken from the supplement of paper PMC9663587.
# Tested on: PDXHCI002
# Test: GRmax, 72 h; higher = less effect;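 further: breast cell lines in 384-well plates, nine doses across a 10^4 range, Dye Drop imaging of viable cells vs DMSO and time-zero plates, GR 0 means no net growth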
row,Compound,"GRmax, 72 h [GR]"
1,CNc1nc(-c2ccc3c(N)n[nH]c3c2)cc(N2C[C@@H](C(=O)NC3CCCCC3)CC[C@H]2C)n1 (max 10 µM),0.867
2,CO[C@@H](C)Cn1c(=O)n(C)c2cnc3ccc(-c4cncc(C(C)(C)O)c4)cc3c21 (max 10 µM),-0.0949
3,C=CCn1c(=O)c2cnc(Nc3ccc(N4CCN(C)CC4)cc3)nc2n1-c1cccc(C(C)(C)O)n1 [AZD1775] (max 10 µM),-0.347
4,CNC(=O)c1cccc(-c2ccc3c(N4CCOC[C@@H]4C)nc(N4CCOC[C@@H]4C)nc3n2)c1 [AZD2014] (max 10 µM),0.489
5,NC1(C(=O)N[C@@H](CCO)c2ccc(Cl)cc2)CCN(c2nc[nH]c3nccc2-3)CC1 [AZD5363] (max 10 µM),1.08
6,C[C@@H]1COCCN1c1cc(C2([S@](C)(=N)=O)CC2)nc(-c2cc[nH]c3nccc2-3)n1 [AZD6738] (max 10 µM),0.734
7,CN(C)C/C=C/C(=O)Nc1ccc(O[C@@H]2CCC[C@@H](Nc3ncc(Cl)c(-c4c[nH]c5ccccc45)n3)C2)cc1 [BSJ-01-175] (max 10 µM),-0.297
8,CC(=O)c1c(C)c2cnc(Nc3ccc(N4CCN(CCOCCOCCOCCNC(=O)COc5cccc6c5C(=O)N(C5CCC(=O)NC5=O)C6=O)CC4)cn3)nc2n(C2CCCC2)c1=O (centres undefined) [BSJ-03-123] (max 10 µM),-0.0835
9,CC(C)Nc1cc(-c2c[nH]c(C(=O)N[C@H](CO)c3cccc(Cl)c3)c2)c(Cl)cn1 [BVD523] (max 10 µM),0.286
10,CCC(=O)Nc1ccc(C(=O)Nc2ccc(Nc3ncc4c(n3)N(C)c3ccc(C)cc3C(=O)N4C)cc2)cc1 [FMF-03-145-1],-0.102
11,COc1cc(N2CCN(C)CC2)ccc1Nc1ncc2c(n1)N(C)c1ccccc1C(=O)N2CC(F)(F)F [FMF-03-146-1],1.02
12,CN1CC[C@H](c2c(O)cc(O)c3c(=O)cc(-c4ccccc4Cl)oc23)[C@H](O)C1 [Flavopiridol] (max 1 µM),-0.143
13,CN(C)C(=O)c1cc2cnc(Nc3ccc(N4CCNCC4)cn3)nc2n1C1CCCC1 [LEE011/Ribociclib] (max 10 µM),0.508
14,O=C1NC(=NCc2cccs2)SC1=Cc1ccc2ncccc2c1 [R0-3306] (max 10 µM),0.0529
15,CNCc1ccc(-c2[nH]c3cc(F)cc4c3c2CCNC4=O)cc1 [Rucaparib] (max 10 µM),0.516
16,CC1(N)CCN(c2cnc(-c3cccc(Cl)c3Cl)c(N)n2)CC1 [SHP099] (max 10 µM),0.63
17,CN1CCN(CCOc2cc(OC3CCOCC3)c3c(Nc4c(Cl)ccc5c4OCO5)ncnc3c2)CC1 [Saracatinib/AZD0530] (max 10 µM),0.0015
18,Cc1cc(C(C)Nc2ccccc2)c2nc(N3CCOCC3)cc(=O)n2c1 (centres undefined) [TGX221] (max 10 µM),0.855
19,CN(C)C/C=C/C(=O)Nc1ccc(C(=O)Nc2cccc(Nc3ncc(Cl)c(-c4c[nH]c5ccccc45)n3)c2)cc1 [THZ1] (max 1 µM),-0.193
20,CN(C)C/C=C/C(=O)Nc1ccc(C(=O)N2CCC[C@@H](Nc3ncc(Cl)c(-c4c[nH]c5ccccc45)n3)C2)cc1 [THZ531] (max 1 µM),-0.198
21,CN(C)C/C=C/C(=O)Nc1ccc(C(=O)Nc2cccc(Nc3cc(-c4c[nH]c5ccccc45)ncn3)c2)cc1 [THZ-P1-2] (max 10 µM),0.721
22,Cc1nc(-c2cn3c(n2)-c2ccc(-c4cnn(C(C)(C)C(N)=O)c4)cc2OCC3)n(C(C)C)n1 [Taselisib/GDC0032] (max 10 µM),-0.137
23,O=C1NC(=O)[C@@H](c2cn3c4c(cccc24)CCC3)[C@@H]1c1c[nH]c2ccccc12 [Tivantinib/ARQ197] (max 10 µM),-0.487
24,Nc1ccc(-c2ccc3ncc4ccc(=O)n(-c5cccc(C(F)(F)F)c5)c4c3c2)cn1 [Torin2] (max 1 µM),-0.102
25,CC[C@@H]1C(=O)N(C)c2cnc(Nc3ccc(C(=O)N[C@H]4CC[C@H](N5CCN(CC6CC6)CC5)CC4)cc3OC)nc2N1C(C)C [Volasertib/BI6727] (max 1 µM),-0.589
26,O=C(CCCCCCC(=O)Nc1ccccc1)NO [Vorinostat] (max 10 µM),-0.583
27,C=CC(=O)Nc1ccc(C(=O)Nc2[nH]nc3c2CN(C(=O)N[C@H](CN(C)C)c2ccccc2)C3(C)C)cc1 [YKL-5-124] (max 10 µM),-0.129
28,CN1CCN(C(=O)c2ccc3cc(CCNc4ncnc5ccc(C#N)cc45)ccc3c2)CC1 [senexin b] (max 10 µM),1.06

# Tested on: SUM149
# Test: GRmax, 72 h; higher = less effect;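 further: breast cell lines in 384-well plates, nine doses across a 10^4 range, Dye Drop imaging of viable cells vs DMSO and time-zero plates, GR 0 means no net growth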
row,Compound,"GRmax, 72 h [GR]"
1,COc1ccc2c(c1)[C@]1(C[C@H]1c1ccc3c(/C=C/c4ccc(CN5C[C@@H](C)O[C@@H](C)C5)cc4)n[nH]c3c1)C(=O)N2,-0.0713
2,COc1cccc(OCCCN)c1-c1cc(Nc2cnc(C#N)cn2)n[nH]1,-0.453
3,CCCCOc1c(C(=O)c2c(F)cc(C)cc2F)c[nH]c2nncc1-2 (max 10 µM),0.0975
4,CNc1nc(-c2ccc3c(N)n[nH]c3c2)cc(N2C[C@@H](C(=O)NC3CCCCC3)CC[C@H]2C)n1 (max 10 µM),0.698
5,CO[C@@H](C)Cn1c(=O)n(C)c2cnc3ccc(-c4cncc(C(C)(C)O)c4)cc3c21 (max 10 µM),-0.0342
6,C=CCn1c(=O)c2cnc(Nc3ccc(N4CCN(C)CC4)cc3)nc2n1-c1cccc(C(C)(C)O)n1 [AZD1775] (max 10 µM),-0.497
7,CNC(=O)c1cccc(-c2ccc3c(N4CCOC[C@@H]4C)nc(N4CCOC[C@@H]4C)nc3n2)c1 [AZD2014] (max 10 µM),0.418
8,NC1(C(=O)N[C@@H](CCO)c2ccc(Cl)cc2)CCN(c2nc[nH]c3nccc2-3)CC1 [AZD5363] (max 10 µM),0.34
9,C[C@@H]1COCCN1c1cc(C2([S@](C)(=N)=O)CC2)nc(-c2cc[nH]c3nccc2-3)n1 [AZD6738] (max 10 µM),-0.297
10,CN(C)C/C=C/C(=O)Nc1ccc(O[C@@H]2CCC[C@@H](Nc3ncc(Cl)c(-c4c[nH]c5ccccc45)n3)C2)cc1 [BSJ-01-175] (max 10 µM),-0.617
11,CC(=O)c1c(C)c2cnc(Nc3ccc(N4CCN(CCOCCOCCOCCNC(=O)COc5cccc6c5C(=O)N(C5CCC(=O)NC5=O)C6=O)CC4)cn3)nc2n(C2CCCC2)c1=O (centres undefined) [BSJ-03-123] (max 10 µM),-0.0089
12,CC(C)Nc1cc(-c2c[nH]c(C(=O)N[C@H](CO)c3cccc(Cl)c3)c2)c(Cl)cn1 [BVD523] (max 10 µM),0.204
13,CCC(=O)Nc1ccc(C(=O)Nc2ccc(Nc3ncc4c(n3)N(C)c3ccc(C)cc3C(=O)N4C)cc2)cc1 [FMF-03-145-1],-0.101
14,COc1cc(N2CCN(C)CC2)ccc1Nc1ncc2c(n1)N(C)c1ccccc1C(=O)N2CC(F)(F)F [FMF-03-146-1],0.971
15,CN1CC[C@H](c2c(O)cc(O)c3c(=O)cc(-c4ccccc4Cl)oc23)[C@H](O)C1 [Flavopiridol] (max 1 µM),-0.605
16,CN(C)C(=O)c1cc2cnc(Nc3ccc(N4CCNCC4)cn3)nc2n1C1CCCC1 [LEE011/Ribociclib] (max 10 µM),0.605

row,Compound,"GRmax, 72 h [GR]"
1,O=C1NC(=NCc2cccs2)SC1=Cc1ccc2ncccc2c1 [R0-3306] (max 10 µM),-0.171
2,CNCc1ccc(-c2[nH]c3cc(F)cc4c3c2CCNC4=O)cc1 [Rucaparib] (max 10 µM),0.559
3,CC1(N)CCN(c2cnc(-c3cccc(Cl)c3Cl)c(N)n2)CC1 [SHP099] (max 10 µM),0.866
4,CN1CCN(CCOc2cc(OC3CCOCC3)c3c(Nc4c(Cl)ccc5c4OCO5)ncnc3c2)CC1 [Saracatinib/AZD0530] (max 10 µM),0.188
5,Cc1cc(C(C)Nc2ccccc2)c2nc(N3CCOCC3)cc(=O)n2c1 (centres undefined) [TGX221] (max 10 µM),1.02
6,CN(C)C/C=C/C(=O)Nc1ccc(C(=O)Nc2cccc(Nc3ncc(Cl)c(-c4c[nH]c5ccccc45)n3)c2)cc1 [THZ1] (max 1 µM),-0.52
7,CN(C)C/C=C/C(=O)Nc1ccc(C(=O)N2CCC[C@@H](Nc3ncc(Cl)c(-c4c[nH]c5ccccc45)n3)C2)cc1 [THZ531] (max 1 µM),-0.509
8,CN(C)C/C=C/C(=O)Nc1ccc(C(=O)Nc2cccc(Nc3cc(-c4c[nH]c5ccccc45)ncn3)c2)cc1 [THZ-P1-2] (max 10 µM),-0.589
9,Cc1nc(-c2cn3c(n2)-c2ccc(-c4cnn(C(C)(C)C(N)=O)c4)cc2OCC3)n(C(C)C)n1 [Taselisib/GDC0032] (max 10 µM),-0.224
10,O=C1NC(=O)[C@@H](c2cn3c4c(cccc24)CCC3)[C@@H]1c1c[nH]c2ccccc12 [Tivantinib/ARQ197] (max 10 µM),-0.224
11,Nc1ccc(-c2ccc3ncc4ccc(=O)n(-c5cccc(C(F)(F)F)c5)c4c3c2)cn1 [Torin2] (max 1 µM),0.0058
12,CC[C@@H]1C(=O)N(C)c2cnc(Nc3ccc(C(=O)N[C@H]4CC[C@H](N5CCN(CC6CC6)CC5)CC4)cc3OC)nc2N1C(C)C [Volasertib/BI6727] (max 1 µM),-0.297
13,O=C(CCCCCCC(=O)Nc1ccccc1)NO [Vorinostat] (max 10 µM),-0.0704
14,C=CC(=O)Nc1ccc(C(=O)Nc2[nH]nc3c2CN(C(=O)N[C@H](CN(C)C)c2ccccc2)C3(C)C)cc1 [YKL-5-124] (max 10 µM),-0.104
15,CN1CCN(C(=O)c2ccc3cc(CCNc4ncnc5ccc(C#N)cc45)ccc3c2)CC1 [senexin b] (max 10 µM),0.747

# Tested on: HCC1428
# Test: area over the GR curve, 72 h; higher = more effect;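 further: Dye Drop or Deep Dye Drop imaging of viable cells in 384-well plates (Hoechst nuclei, LIVE/DEAD dye), nine half-log doses, GR normalized to DMSO controls and time-zero plates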
row,Compound,area over the GR curve [GR]
1,CN1CCN(CCOc2cc(OC3CCOCC3)c3c(Nc4c(Cl)ccc5c4OCO5)ncnc3c2)CC1 [Saracatinib/AZD0530] (max 10 µM),0.0609
2,Cc1cc(C(C)Nc2ccccc2)c2nc(N3CCOCC3)cc(=O)n2c1 (centres undefined) [TGX221] (max 10 µM),0.0058
3,Cc1nc(-c2cn3c(n2)-c2ccc(-c4cnn(C(C)(C)C(N)=O)c4)cc2OCC3)n(C(C)C)n1 [Taselisib/GDC0032] (max 10 µM),0.139
4,O=C1NC(=O)[C@@H](c2cn3c4c(cccc24)CCC3)[C@@H]1c1c[nH]c2ccccc12 [Tivantinib/ARQ197] (max 10 µM),0.345
5,Nc1ccc(-c2ccc3ncc4ccc(=O)n(-c5cccc(C(F)(F)F)c5)c4c3c2)cn1 [Torin2] (max 1 µM),0.439
